From patent publication US20030228256A1, “Methods of achieving transplantation tolerance through radioablation of hemolymphopoietic cell populations” (priority 2002, published 2003)
Read-outs that look alike come from different tables or passages of the source.

Experiments:
[1] = test system: white blood cell counts (WBC), hemolymphopoietic elements; assay: Blood counts (WBC, RBC, Hb, PLT) after single IV dose of 153Sm-EDTMP; format: in vivo, C57BL/6 mice; parameters: time at which myelodepression occurred: unit not given here
Procedure: (§1) Bone marrow-derived Cell Transplantation. Balb/c mice, 8-9 weeks old, used as donors, were sacrificed on the day of the transplant. Bone marrow cells (BMC) were prepared according to a previously published regimen. Briefly, after removing femura and tibiae, and cleaning them from muscle tissue and cartilage, BMC were flushed with sterile RPMI-1640 (Mediatech, Inc, Herndon, Va.) supplemented with 0.8 mg/ml Gentamycin (Gibco, Gaithersburg, Md.), using 23G needle. BMC were filtered through a sterile nylon mesh and counted. Fully MCH-mismatched C57BL/6 recipients, 9-10 weeks of age, were injected intravenously with either 20×10^6 or 100×10^6 unmanipulated BMCs resuspended in 0.5 and 1.0 ml of HBSS Hank's Balanced Saline Solution) (Mediatech) respectively, on either day 7 or 14. Tolerance induction protocol consisted of either 150 or 500 μCi of ^153Sm-EDTMP (Berlex Laboratories Wayne, N.J.), I.V., on day—7, and 0.5 mg hamster anti-murine CD154 mAb (MR-1), purchased from Taconic (Germantown, N.Y.) administered intraperitoneally (I.P.) on days—1,0,7,14, 21 and 28.
Recipient animals (C57BL/6, H-2^b) were treated with a single IV dose of ^153Sm-EDTMP, 150 μCi or 500 μCi, prior to administration of 20×10^6 or 100×10^6 allogenic donor bone marrow cells (BMC) (BALB/c, H-2^d), also administered as a single IV dose. BMC transplantation (BMC-Tx) was performed on day 7 or 14 following the administration of ^153Sm in the presence of transient T lymphocyte co-stimulatory blockade by MR-1 (hamster anti-murine CD154 mAb) on days—1, 0, 7, 14, 21 and 28, 0.5 mg IP. […] Similar data were obtained in animals treated with ^153Sm-EDTMP and not transplanted with allogeneic BMC (not shown). […] No dramatic alterations of RBC, PLT or Hb counts were evident.

[2] = test system: donor-derived cells (BALB/c BMC) in recipients; assay: Hemolymphopoietic chimerism: percentage of donor-derived cells in recipient PBL by flow cytometry after allogeneic BMC-Tx; format: in vivo, C57BL/6 mice
Procedure: as §1
Immunohemotyping of chimeras. Engraftment of donor-derived BMCs was ascertained by flow cytometric analysis (FCM) of recipient peripheral blood mononuclear cells (PBMCs), splenocytes, thymocytes and bone marrow cells after staining with FITC-conjugated anti-mouse H-2K^b or H-2K^d and Cy-Chrome-conjugated CD3 monoclonal antibodies (mAbs) purchased from PharMingen (San Diego, Calif.) at multiple time points during the experiment as well as at sacrifice. Cells were also assessed for non-specific staining using an Ig isotype control (FITC-conjugated mouse IgG2a and Cy-Chrome-conjugated rat IgG2b), and the percentage of cells stained with this Ab was subtracted from the values obtained from staining with the specific Ab to determine the relative number of positive cells. Reconstitution of various cell lineages was assessed using FITC-conjugated anti-mouse H-2K^b or H-2K^d and PE-conjugated anti-mouse CD19/CD22 in the B cell, PE-conjugated anti-mouse Ly-6G in the granulocyte, and PE-conjugated anti-mouse Mac-3 in the macrophage compartments. Recipient animals were first tested 1 week after BMC-Tx, every 2 weeks up to 6 weeks, and every 4 weeks thereafter. Purified anti-mouse CD16/CD32 (FcγIII/II) was used to block non-specific binding to the Fc receptors. FCM analyses were preformed using CellQuest software on a FACScan cytometer purchased from Becton Dickinson & Co. (Mountain View, Calif.).
Typing of PBL obtained from the recipient animals starting at 2 weeks following the reconstitution with donor-derived BM allogeneic cells, every two weeks up to 6 weeks post-reconstitution, and every 4 weeks afterwards was performed using anti Class I H-2^b-FITC and H-2^d-FITC. Analysis was performed on the lymphoid gate, and the values were normalized to 100%.

[3] = test system: donor-specific (Balb/c) and third party (C3H) skin grafts
Procedure: Full-thickness skin donor (Balb/c) and third party (C3H/HeJ) grafts were transplanted onto the lateral thoracic area of the recipients either the day following BMC-Tx, or 4 weeks following the last administration of MR-1 mAb, using techniques described previously. Briefly, square, full-thickness skin grafts (1 cm^2) were prepared from the tail skin of donors. Graft beds were prepared on the right (donor-specific) and left (third party) lateral thoracic wall of recipient mice. Grafts were fixed to the beds with 4 sutures of 5.0 silk at the corners of the graft and covered with a petroleum jelly-coated gauze and a plaster cast. The grafts were first inspected on the eighth-day following grafting, and every third day thereafter. Graft rejection was considered complete when no viable graft tissue was detected by visual inspection. Recipient mice were considered to be tolerant when donor-specific skin grafts survived in perfect condition for <150 days.
Grafts were prepared 30 days following the last administration of anti-CD154 mAb in the treated animals. Two different donor strain combinations, BALB/c (H-2^d), and C3H/J (H-2^k) were used. Each recipient received skin grafts from both strains: donor-type, BALB/c (H-2^d), as well as third-party, C3H/J (H-2^k). […] Grafts were followed for a minimum of 128 days and were considered rejected when viable tissue was no longer detected at the transplant site.

## O=P([O-])(O)CN(CCN(CP(=O)([O-])O)CP(=O)(O)O)CP(=O)([O-])O.[153Sm+3] [^153Sm-EDTMP]
[1]; in the presence or absence of allogeneic BMC-Tx
  reversibility of myelodepression of the WBC compartment: spontaneously reversible
[1]; single IV dose 150 or 500 μCi
  effect on red blood cell (RBC), hemoglobin (Hb) and platelet (PLT) counts: does not have significant effect
  time at which myelodepression occurred: one
  time by which myelodepression spontaneously resolved: 4-6 weeks post-administration
[1]; single IV dose 150 or 500 μCi, FIG. 1
  myelodepression (decreased white blood cell counts): transient myelodepression
[2]; 20×10^6 BMC, anti-CD154 mAb, 153Sm-EDTMP 150 or 500 μCi
  CD3+ T lymphocytes of donor origin (mixed chimerism of lymphoid lineage): CD3+ T lymphocytes of donor origin were also present
[2]; 100×10^6 BMC, anti-CD154 mAb
  chimerism levels with versus without 153Sm administration: reproducibly higher
[2]; 100×10^6 BMC, anti-CD154 mAb, 153Sm-EDTMP 150 or 500 μCi
  CD3+ T lymphocytes of donor origin (mixed chimerism of lymphoid lineage): CD3+ T lymphocytes of donor origin were also present
[2]; 100×10^6 BMC, anti-CD154 mAb, 153Sm-EDTMP 150 or 500 μCi, BMC on day 7 or 14, FIG. 2
  BM engraftment: BM engraftment in all recipient animals analyzed
[2]; absence of co-stimulatory blockade, 20×10^6 or 100×10^6 BMC, FIGS. 4-5
  chimerism in recipients of allogeneic BMC: transient chimerism
[2]; combination of BMC-Tx, 153Sm-EDTMP and anti-CD154 mAb, FIGS. 7 and 8
  multilineage chimerism (B cells, NK, granulocytes): long-term, stable multilineage chimerism
[2]; in the presence of costimulatory blockade (anti-CD154 mAb)
  chimerism in recipients of allogeneic BMC: long-lasting hemolymphopoietic chimerism
[2]; single administration prior to infusion of allogeneic bone marrow-derived cells
  chimerism across a full allogeneic barrier: high levels of stable long-term chimerism
[2]; with BMC-Tx and MR-1 co-stimulatory blockade
  effectiveness of lower dose 150 μCi versus higher dose 500 μCi: as effective as the higher dose
[2]; with costimulatory blockade
  influence of 153Sm dose (150 vs 500 μCi) and timing of BMC-Tx on chimerism: do not grossly influence the results
[3]; 20×10^6 BMC, 153Sm-EDTMP and anti-CD154 mAb
  third party (C3H/J) skin graft outcome: rejected within the same time frame as were donor-specific grafts placed on naïve recipients
[3]; 20×10^6 BMC, 153Sm-EDTMP and anti-CD154 mAb, FIG. 9
  tolerance to donor-specific skin grafts: tolerance to donor-specific skin grafts is obtained
[3]; 100×10^6 BMC, 153Sm-EDTMP and anti-CD154 mAb
  third party (C3H/J) skin graft outcome: rejected within the same time frame as were donor-specific grafts placed on naïve recipients
[3]; 100×10^6 BMC, anti-CD154 mAb, FIG. 10
  enhancing effect of 153Sm administration on graft survival: lost
[3]; a large percent of animals, followed up to 31 weeks post bone marrow transplantation, with anti-CD154 mAb
  time donor-derived skin grafts were kept: > 150 days
